23 molecules from ChEMBL document CHEMBL1201862, “PubChem BioAssay data set” (2004) can be followed below.

Assay [1] relates to H9c2. The assay can be described thus: cells. Type of assay: functional, cell-based. The note with it: Rattus norvegicus, H9c2, Myocardium.
The subject of assay [2] is Streptococcus sp. 'group A'. The experiment in a line: Streptococcus pyogenes SK(-)GAS viability under kanamycin – luminescence, BacTiterGlo, confirmation, counter-screen for streptokinase expression inhibitor project, dose response (AID 1900). Type of assay: functional, organism-based. Background: The purpose of a counterscreen is to sort out artefacts and off-target activity.

The target of assay [3] is T1, Streptokinase A (Streptococcus pyogenes serotype M1, UniProt P10520).
T1 sequence (P10520 whole entry): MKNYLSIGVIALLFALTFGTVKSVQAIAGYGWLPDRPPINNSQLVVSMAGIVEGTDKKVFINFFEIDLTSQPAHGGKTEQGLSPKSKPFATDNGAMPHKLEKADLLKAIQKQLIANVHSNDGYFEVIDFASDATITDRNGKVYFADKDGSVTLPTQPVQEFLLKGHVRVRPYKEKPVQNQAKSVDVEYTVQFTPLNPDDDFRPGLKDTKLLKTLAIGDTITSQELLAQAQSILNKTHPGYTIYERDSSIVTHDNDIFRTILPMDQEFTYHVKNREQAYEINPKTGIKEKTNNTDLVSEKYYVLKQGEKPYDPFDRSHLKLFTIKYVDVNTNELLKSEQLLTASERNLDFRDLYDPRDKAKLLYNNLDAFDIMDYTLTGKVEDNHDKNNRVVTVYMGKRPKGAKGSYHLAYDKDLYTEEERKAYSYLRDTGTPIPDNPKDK
The assay can be described thus: viability-normalized secreted streptokinase activity reduction – plasminogen activation absorbance, OD405, dose response (AID 1914).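 Further: secreted streptokinase activity via plasminogen activation per viability signal from cell pellet.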 Type of assay: functional, Streptococcus pyogenes M1 GAS.

Assay [4] deals with Streptococcus. The experiment in a line: GAS UMAA2166 growth inhibition – luminescence, BacTiterGlo, counter-screen for streptokinase expression inhibitor project, dose response (AID 1915).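 Further: potency for reduction of bacterial viability or growth.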 The assay is classed as functional, organism-based.
The target in assay [5] is Large T antigen (Simian virus 40, UniProt P03070). Type of assay: functional, Betapolyomavirus macacae.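 Further: Confirmatory-stage PubChem screen for compounds that inhibit SV40 T antigen.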
Sequence of Large T antigen (P03070 whole entry): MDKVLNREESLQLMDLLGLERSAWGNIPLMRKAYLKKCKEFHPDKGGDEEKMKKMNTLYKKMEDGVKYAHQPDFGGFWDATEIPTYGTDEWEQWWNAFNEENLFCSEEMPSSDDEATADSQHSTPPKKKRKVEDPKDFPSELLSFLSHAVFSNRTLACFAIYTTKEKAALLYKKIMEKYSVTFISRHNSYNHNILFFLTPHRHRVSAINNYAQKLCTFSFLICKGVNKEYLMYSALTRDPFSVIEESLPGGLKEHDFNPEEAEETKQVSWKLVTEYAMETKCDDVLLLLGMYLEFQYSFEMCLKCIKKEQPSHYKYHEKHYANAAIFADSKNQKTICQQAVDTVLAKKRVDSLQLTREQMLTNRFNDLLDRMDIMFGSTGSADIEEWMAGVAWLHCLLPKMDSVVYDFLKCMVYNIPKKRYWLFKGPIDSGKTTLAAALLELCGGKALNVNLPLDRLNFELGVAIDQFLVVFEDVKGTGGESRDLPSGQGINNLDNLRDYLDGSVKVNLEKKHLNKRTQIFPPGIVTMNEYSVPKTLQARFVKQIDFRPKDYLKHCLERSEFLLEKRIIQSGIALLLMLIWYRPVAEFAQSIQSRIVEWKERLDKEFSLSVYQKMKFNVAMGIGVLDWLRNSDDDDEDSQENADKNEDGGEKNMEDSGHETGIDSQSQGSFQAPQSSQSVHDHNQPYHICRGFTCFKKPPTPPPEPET
For assay [6], the target named is T2, Rac GTPase-activating protein 1 (Homo sapiens, UniProt Q9H0H5).
T2 sequence (Q9H0H5 whole entry): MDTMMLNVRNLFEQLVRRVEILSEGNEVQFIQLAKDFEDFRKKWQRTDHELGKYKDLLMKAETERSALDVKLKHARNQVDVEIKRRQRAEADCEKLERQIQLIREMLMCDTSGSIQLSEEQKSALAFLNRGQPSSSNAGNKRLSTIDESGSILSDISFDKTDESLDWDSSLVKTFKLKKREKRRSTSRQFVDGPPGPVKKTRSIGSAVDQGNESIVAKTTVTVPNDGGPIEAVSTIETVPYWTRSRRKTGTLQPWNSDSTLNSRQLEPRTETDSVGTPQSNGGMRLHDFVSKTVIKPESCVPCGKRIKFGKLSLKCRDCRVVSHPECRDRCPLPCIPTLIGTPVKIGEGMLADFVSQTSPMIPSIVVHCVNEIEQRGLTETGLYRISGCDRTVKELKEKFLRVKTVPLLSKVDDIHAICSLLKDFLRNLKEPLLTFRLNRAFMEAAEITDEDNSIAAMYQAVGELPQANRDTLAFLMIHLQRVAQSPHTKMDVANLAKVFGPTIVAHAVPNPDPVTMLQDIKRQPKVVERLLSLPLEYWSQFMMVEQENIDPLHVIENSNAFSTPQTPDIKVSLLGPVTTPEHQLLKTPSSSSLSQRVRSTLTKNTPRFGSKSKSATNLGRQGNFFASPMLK
The experiment in a line: blockers of MgcRacGAP-driven Rac1 GTP hydrolysis – biochemical, ADP Hunter fluorescence, primary and confirmatory, confirmation (AID 624330). The assay is classed as functional.

In assay [7] the target is T3, Ubiquitin-conjugating enzyme E2 N (Homo sapiens, UniProt P61088).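 Further: Dose-response confirmation in a TR-FRET assay detecting UBC13-driven polyubiquitin chain formation, inhibition measured.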
T3 sequence (P61088 whole entry): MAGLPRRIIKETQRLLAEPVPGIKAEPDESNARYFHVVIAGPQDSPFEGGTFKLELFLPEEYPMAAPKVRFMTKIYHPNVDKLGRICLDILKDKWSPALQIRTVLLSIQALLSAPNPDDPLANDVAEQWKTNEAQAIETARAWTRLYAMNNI
The assay is classed as functional.

In assay [8] the target is T4, RNA-binding protein pos-1 (Caenorhabditis elegans, UniProt G5EF15).
T4 sequence (G5EF15 whole entry): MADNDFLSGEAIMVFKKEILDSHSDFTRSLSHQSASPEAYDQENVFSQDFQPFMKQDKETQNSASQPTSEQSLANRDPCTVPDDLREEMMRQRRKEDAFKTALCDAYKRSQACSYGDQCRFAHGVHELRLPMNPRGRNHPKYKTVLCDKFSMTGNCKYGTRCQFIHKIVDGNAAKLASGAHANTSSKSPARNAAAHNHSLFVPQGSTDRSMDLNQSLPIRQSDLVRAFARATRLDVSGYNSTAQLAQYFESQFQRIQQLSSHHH
The assay can be described thus: disruptors of C. elegans POS-1 RNA interaction – biochemical, fluorescence polarization, dose response (AID 1964).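 Further: purified POS-1 fused to maltose binding protein made in E. coli; potency of compounds blocking POS-1 binding to fluorescent RNA.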 For orientation: In fluorescence polarisation assays a small probe gives low polarisation when free and higher when bound to something large.

Assay [9] deals with T5, Zinc finger protein mex-5 (Caenorhabditis elegans, UniProt Q9XUB2).
T5 sequence (Q9XUB2 whole entry): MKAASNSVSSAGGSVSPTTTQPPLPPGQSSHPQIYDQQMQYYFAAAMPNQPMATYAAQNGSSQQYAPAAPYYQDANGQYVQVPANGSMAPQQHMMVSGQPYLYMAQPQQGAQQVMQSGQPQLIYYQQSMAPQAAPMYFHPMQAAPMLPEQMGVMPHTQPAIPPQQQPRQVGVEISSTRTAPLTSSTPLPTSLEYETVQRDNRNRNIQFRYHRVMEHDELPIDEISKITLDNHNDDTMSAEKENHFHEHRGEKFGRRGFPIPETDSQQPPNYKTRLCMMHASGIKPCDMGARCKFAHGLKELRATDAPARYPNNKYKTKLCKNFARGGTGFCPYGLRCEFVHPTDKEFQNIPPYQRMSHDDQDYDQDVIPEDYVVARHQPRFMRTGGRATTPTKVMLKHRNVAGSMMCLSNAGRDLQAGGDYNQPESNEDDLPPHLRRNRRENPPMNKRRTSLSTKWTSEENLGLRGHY
The experiment in a line: potency of MEX-5 RNA-binding blockers – biochemical, C. elegans, fluorescence polarization, dose response (AID 1960).

In assay [10] the target is T6, Estrogen receptor (Homo sapiens, UniProt P03372).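 Further: potency for inhibiting coactivator peptide recruitment to the receptor.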
T6 sequence (P03372 whole entry): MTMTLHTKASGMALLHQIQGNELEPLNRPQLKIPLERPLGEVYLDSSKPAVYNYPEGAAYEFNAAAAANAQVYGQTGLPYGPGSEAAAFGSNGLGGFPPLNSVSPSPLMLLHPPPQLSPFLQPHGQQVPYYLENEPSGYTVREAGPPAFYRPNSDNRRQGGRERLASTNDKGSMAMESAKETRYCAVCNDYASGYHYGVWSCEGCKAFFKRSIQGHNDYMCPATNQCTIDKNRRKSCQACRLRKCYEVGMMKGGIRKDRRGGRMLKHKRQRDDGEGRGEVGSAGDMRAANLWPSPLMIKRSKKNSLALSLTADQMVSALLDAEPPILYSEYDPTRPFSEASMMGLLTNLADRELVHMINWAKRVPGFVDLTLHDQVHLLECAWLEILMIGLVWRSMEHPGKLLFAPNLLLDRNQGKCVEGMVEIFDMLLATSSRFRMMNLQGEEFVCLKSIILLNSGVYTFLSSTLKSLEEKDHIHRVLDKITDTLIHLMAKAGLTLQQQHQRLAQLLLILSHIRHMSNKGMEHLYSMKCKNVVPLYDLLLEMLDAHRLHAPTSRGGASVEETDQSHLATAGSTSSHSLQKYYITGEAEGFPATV

Assay [11] in a line: microbe, parasite or virus in culture. Type of assay: functional. The note with it: Mycobacterium tuberculosis.
Assay [12] can be described thus: NIH-3T3 fibroblast cytotoxicity, dose response, cytotoxicity control, cell-based, fluorescence, Alamar Blue, secondary assay (AID 2327).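 Further: NIH-3T3 mouse fibroblasts cultured with fluconazole at 8 µg/mL.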 The assay is classed as functional. In general terms: The colour change of resazurin is a common sign of viable cells or microbes.
The nature of assay [13]: fluconazole-exposed Candida albicans growth modulators – fluorescence, retest, confirmation (AID 2467). The assay is classed as functional, cell-based.
Assay [14] has as its target T7, Heat shock factor protein 1 (Mus musculus, UniProt P38532).
T7 sequence (P38532 whole entry): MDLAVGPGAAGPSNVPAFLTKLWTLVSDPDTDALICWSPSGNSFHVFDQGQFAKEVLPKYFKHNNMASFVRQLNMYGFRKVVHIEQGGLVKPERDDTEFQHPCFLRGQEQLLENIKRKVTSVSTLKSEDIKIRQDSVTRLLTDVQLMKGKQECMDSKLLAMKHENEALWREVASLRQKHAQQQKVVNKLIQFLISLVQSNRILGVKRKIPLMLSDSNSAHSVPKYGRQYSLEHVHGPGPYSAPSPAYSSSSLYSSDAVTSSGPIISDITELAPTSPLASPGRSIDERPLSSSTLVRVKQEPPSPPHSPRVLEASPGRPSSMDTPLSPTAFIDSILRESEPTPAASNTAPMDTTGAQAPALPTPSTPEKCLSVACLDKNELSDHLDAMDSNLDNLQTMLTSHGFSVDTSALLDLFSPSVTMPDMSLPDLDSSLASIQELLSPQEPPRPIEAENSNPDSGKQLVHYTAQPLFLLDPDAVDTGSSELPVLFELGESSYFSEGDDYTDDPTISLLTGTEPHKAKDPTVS
The assay can be described thus: decrease of HSF1-responsive luciferase luminescence – cell-based, NIH3T3, dose retest, confirmation (AID 2382).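 Further: NIH3T3 fibroblasts with HSF1-driven luciferase reporter stressed by proteasome inhibitor MG132; luminescence from HSF1-driven luciferase expression after 8 hours of MG132 stress.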 The assay is classed as functional.

Assay [15] addresses Cytochrome P450 2D6 (Homo sapiens, UniProt P10635).
The target in assay [16] is Cytochrome P450 2C9 (Homo sapiens, UniProt P11712).
Sequence of Cytochrome P450 2C9 (P11712 whole entry): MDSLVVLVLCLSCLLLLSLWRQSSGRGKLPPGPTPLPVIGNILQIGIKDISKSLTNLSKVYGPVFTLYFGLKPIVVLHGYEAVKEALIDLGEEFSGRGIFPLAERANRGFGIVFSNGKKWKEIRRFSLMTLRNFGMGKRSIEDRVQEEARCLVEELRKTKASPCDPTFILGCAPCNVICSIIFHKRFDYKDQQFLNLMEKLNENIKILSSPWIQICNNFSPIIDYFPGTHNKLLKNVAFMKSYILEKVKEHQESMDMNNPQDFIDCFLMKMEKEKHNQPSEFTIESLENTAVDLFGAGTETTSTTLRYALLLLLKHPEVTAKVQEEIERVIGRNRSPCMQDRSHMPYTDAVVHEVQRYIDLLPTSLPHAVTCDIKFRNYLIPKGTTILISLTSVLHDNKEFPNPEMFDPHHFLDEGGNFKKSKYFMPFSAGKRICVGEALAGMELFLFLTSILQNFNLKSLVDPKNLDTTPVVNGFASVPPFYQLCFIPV

Activity calls are given as the source filed them. Some results are limits rather than exact numbers.

Sequence of Cytochrome P450 2D6 (P10635 whole entry): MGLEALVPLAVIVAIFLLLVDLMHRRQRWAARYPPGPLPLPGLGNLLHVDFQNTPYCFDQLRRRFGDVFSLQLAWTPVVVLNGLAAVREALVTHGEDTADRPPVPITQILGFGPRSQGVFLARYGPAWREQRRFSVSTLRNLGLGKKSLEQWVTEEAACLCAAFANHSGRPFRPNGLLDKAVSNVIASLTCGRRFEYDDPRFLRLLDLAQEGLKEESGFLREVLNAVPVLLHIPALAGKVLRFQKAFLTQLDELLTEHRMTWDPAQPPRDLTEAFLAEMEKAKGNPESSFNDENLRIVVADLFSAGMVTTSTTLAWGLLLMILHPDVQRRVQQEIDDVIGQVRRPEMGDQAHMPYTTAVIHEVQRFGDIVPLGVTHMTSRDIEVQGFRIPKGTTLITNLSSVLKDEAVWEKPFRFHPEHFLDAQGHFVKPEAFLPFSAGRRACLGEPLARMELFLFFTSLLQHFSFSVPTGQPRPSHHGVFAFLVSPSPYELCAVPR

As for `CNS(=O)(=O)c1cc2c3c(cccc3c1)C(=O)NC2=O`, in [1], the IC50 was 16.9 µM (active).

With `CCOC(=O)c1nn(-c2cccc(OC)c2)c2nc(Nc3ccccc3)cc(=O)n12`, the EC50 in assay [2] was 3.12 µM (active); in assay [3], > 150 µM (not active); in [4], 30 µM (active). The IC50 in assay [1] was > 79 µM (inactive).

On to `O=C(N/N=C/c1ccccn1)c1[nH]c2ccc([N+](=O)[O-])cc2c1-c1ccccc1`, for which, in assay [1], the IC50 was > 79 µM (inactive).

Regarding `C/C(=N\NC(=O)CSc1nc2ccccc2o1)c1ccc(O)cc1`, the IC50 in [5] was 18.9 µM (active); in assay [6], 86.9 µM (active).

For the molecule `CC1(C)Cc2c(sc(NC(=O)c3ccc4c(c3)OCCO4)c2C(N)=O)C(C)(C)N1`, the IC50 in assay [7] is > 20 µM (inactive).

`O=C(CCc1nc(O)c2ccccc2n1)NNC(=O)c1ccc(F)cc1`: the IC50 in assay [1] was > 79 µM (inactive).

For `COc1ccc(/C(O)=C/C2=NCC3c4ccccc4CCN3C2=O)cc1` (stereo unspecified), the concentration giving a half-maximal response (EC50) in assay [8] and in assay [9] was > 300 µM (not active) in each case.

Regarding `Cc1nnc(NC(=O)Cc2cccs2)s1`, the IC50 in assay [10] is 19 µM (active).

As for `CCOC(=O)C1CCCN(C(=O)CCC(=O)Nc2ccc3nc(N4CCOCC4)cc(C)c3c2)C1` (stereo unspecified), in [1], the IC50 is > 79 µM (inactive).

As for `Oc1ccc(C[C@H]2CNCCN2CCCCC2CCCCC2)cc1`, the CC50 in assay [11] is 13.2 µM (active). Besides, the IC50 in assay [7] is > 20 µM (inactive).

`O=C(CC1CC2CCC1C2)Nc1nc(-c2ccccn2)cs1` (stereo unspecified): the EC50 in [12] was > 150 µM (inactive); in assay [2], 4.21 µM (active); in assay [3], > 150 µM (not active); in assay [13] it was > 38 µM (not active); in [4], 13.2 µM (active). Also, the IC50 in assay [1] is > 79 µM (inactive).

Take `N#Cc1c(SCC(=O)Nc2nccs2)nc2c(c1-c1ccco1)CCCC2`: the EC50 in [14] is recorded as > 195 µM (not active). Also, in [10], the IC50 is > 50 µM (not active).

Turning to `Cc1ccc(NC(=O)CCCc2nc(O)c3ccccc3n2)c(Cl)c1`, the half-inhibitory concentration (IC50) in assay [1] is 25.1 µM (active).

Consider `O=C1NC(=O)N(CCc2ccccc2)C(=O)/C1=C/NCCCn1ccnc1`, for which the EC50 in assay [8] and in [9] was > 300 µM (not active) each time.

For the molecule `NS(=O)(=O)c1ccc(CCNC(=O)C2CCN(c3ncnc4c3nc3n4CCCCC3)CC2)cc1`, in [7], the IC50 is > 20 µM (inactive).

For `O=C(CSc1nnc(-c2ccco2)[nH]1)Nc1sc2c(c1C(=O)Nc1ccccc1)CCCC2`, the IC50 in [10] is 40 µM (not active).

Regarding `O=C(CCCCCn1c(=O)[nH]c2ccccc2c1=O)NCCCN1CCN(c2ccccc2F)CC1`, in [7], the IC50 is > 20 µM (inactive).

Regarding `CCN(CC)c1ccc(N/C=C2/C(=O)NC(=O)N(c3ccc(OC)cc3)C2=O)cc1`, the EC50 was 9.58 µM (inconclusive) in assay [8] and 6.36 µM (active) in assay [9].

For the molecule `CO/C(O)=C(/C=N/c1ccc(O)cc1)[N+](=O)[O-]`, the IC50 was 62.1 µM (active) in assay [5] and 25.5 µM (active) in [6].

With `C=CCOc1cccc(C2C(C(=O)c3ccco3)=C(O)C(=O)N2Cc2ccco2)c1` (stereo unspecified), the EC50 in assay [8] and in [9] was > 300 µM (not active) each time.

In the case of `COc1ccc(Cn2c(N)c(C(=O)NCc3ccco3)c3nc4ccccc4nc32)cc1`, the IC50 in assay [10] was 17.3 µM (active). Moreover, the results for the half-maximal activity concentration (AC50) in assay [15] and in assay [16] were 14.1 µM (inconclusive) and 1 µM (inconclusive), respectively.

`CC1CCC2(CC1)NC(=O)N(CC(=O)c1ccc[nH]1)C2=O` (stereo unspecified): the IC50 in assay [10] was > 50 µM (not active).

`CC(OC(=O)Cc1nnc(O)c2ccccc12)C(=O)Nc1ccc(F)cc1Cl` (stereo unspecified): in [1], the IC50 was 15.4 µM (active).

For orientation: IC50 means the concentration needed to halve the response being measured. As usually defined, the EC50 is the midpoint of the concentration-response curve. For orientation: AC50 means the midpoint of the concentration-response curve, whichever way the signal moves.
